# Molecular target: Cdc7/ASK (Homo sapiens, UniProt O00311)
# Assay: Cdc7 Biochemical Assay Method 1: 384 well ELISA, whole protein substrate MCM2, antibody against Phospho MCM2 (S53)
# Set-up: purchased
# Conditions: 2 μM ATP, read-out: Biochemical Method 1 (pIC50) (converted)
# Experimental: This protocol describes a method for assaying Cdc7/ASK for activity. The assay is a 384 well ELISA assay, utilising a whole protein substrate (MCM2) and an antibody against Phospho MCM2 (S53). This site is thought to be specific to Cdc7/ASK phosphorylation and the assay has been validated using knockout mutants. Reagents • TBS: 25 mM Tris pH 7.2, 150 mM NaCl. (Dilute 10× stock by 1:10). • Wash Buffer: TBS+0.05% Tween 20. (Add 100 mL 1 M Tris pH 7.2, 120 mL 5 M NaCl and 2 mL 100% Tween 20 per 4 L). • Kinase Reaction Buffer: 50 mM Tris-HCl pH 8.5, 10 mM MgCl2, 1 mM DTT. (Dilute 10× stock by 1:10 and add 100 μL 1M DTT per 100 mL prior to assay). • Diethanolamine Buffer: 1 M diethanolamine pH 9.8, 0.5 mM MgCl2. • Stop Solution: 1 M NaOH. • MCM2 was expressed and purified in-house and used in the assay at a final assay concentration of 436 ng/well. • Cdc7/ASK is purchased from commercial suppliers and used in the assay at a final assay concentration of 37.97 ng/well or 20.63 nM. • ATP used as a final assay concentration of 2 μM. • Primary Antibody: Rabbit anti-Phospho MCM2 (S53 Antibody (BL3353)), is purchased from commercial suppliers at 0.2 mg/mL and used at a final assay concentration by diluting 1:800 in TBS. • Secondary Antibody: Anti-Rabbit/AP Antibody is supplied is purchased from commercial suppliers at 1 mg/mL and used at a final assay concentration by diluting 1:2000 in TBS. • Development Reagent: Dissolve one 20 mg PNPP tablet (Sigma, product […], 20 mg per tablet) per 20 mL diethanolamine Buffer (or one 5 mg PNPP tablet per 5 mL diethanolamine buffer). Cover in foil and leave shaking on a roller shaker at room temperature for up to an hour to dissolve. Methods • 1. Add 20 μL 1× working stock of Substrate (MCM2) in TBS to all wells of a clear, 384 well, Nickel-chelate microplate to give a final concentration of […]. Incubate at room temperature for at least 1 hour. Plates can be pre-coated for 1 hour and stored at 4° C. for up to 8 days. • 2. Wash with TBS+0.05% Tween 20 (80 μL×3). • 3. Add 2 μL 10× test compounds, including the positive control, in 40% DMSO/water to 'test' wells. Add 2 μL 40% DMSO/water to 'control' and 'blank' wells. The final DMSO concentration will be 4%. • 4. Add 13 μL CDC7/ASK Kinase (1.5× stock) in Kinase Reaction Buffer to 'test' and 'control' wells to give a final concentration of […]. Add 13 μL Kinase Reaction Buffer to 'blank' wells. • 5. Add 5 μL ATP (4× stock) in Kinase Reaction Buffer to all wells to give a final concentration of 2 μM. • 6. Incubate at room temperature for 90 minutes. • 7. Wash with TBS+0.05% Tween 20 (80 μL×3). • 8. Add 20 μL 1× working solution of Primary Antibody in TBS to all wells. Incubate at room temperature for 30 minutes. • 9. Wash with TBS+0.05% Tween 20 (80 μL×3). • 10. Add 20 μL 1× working solution of Secondary Antibody in TBS to all wells. Incubate at room temperature for 30 minutes. • 11. Wash with TBS+0.05% Tween 20 (80 μL×3). • 12. Add 20 μL 1× Development Reagent to all wells. • 13. Incubate at room temperature for 2 hours. Stop the reaction by adding 20 μL Stop Solution to all wells and record Absorbance on a Pherastar plate reader. Percentage inhibition values were calculated from absorbance values, using the no compound (DMSO) and no enzyme control values as 0% and 100% inhibition, respectively. IC50 determination was performed with ExcelFit software (IDBS) using curve fit 205. Z' factors were determined for each plate tested and were all above 0.5. Method 2
# Chain of Cdc7/ASK (O00311 whole entry): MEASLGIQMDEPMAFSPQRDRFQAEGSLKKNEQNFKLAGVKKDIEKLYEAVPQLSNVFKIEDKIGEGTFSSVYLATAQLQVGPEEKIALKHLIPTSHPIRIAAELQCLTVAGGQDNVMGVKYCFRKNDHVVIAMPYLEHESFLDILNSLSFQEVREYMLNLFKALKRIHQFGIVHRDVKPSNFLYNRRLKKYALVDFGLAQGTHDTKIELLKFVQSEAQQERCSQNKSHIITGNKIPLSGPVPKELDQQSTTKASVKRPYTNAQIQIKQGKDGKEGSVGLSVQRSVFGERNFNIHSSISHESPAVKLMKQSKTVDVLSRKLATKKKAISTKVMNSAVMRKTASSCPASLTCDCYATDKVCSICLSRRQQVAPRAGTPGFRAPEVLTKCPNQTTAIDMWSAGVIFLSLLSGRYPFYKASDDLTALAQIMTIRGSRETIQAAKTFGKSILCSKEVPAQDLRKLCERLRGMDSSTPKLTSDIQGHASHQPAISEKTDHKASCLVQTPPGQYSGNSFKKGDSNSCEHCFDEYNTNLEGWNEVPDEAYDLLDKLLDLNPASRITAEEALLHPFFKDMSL
# Chain of Cdc7/ASK (Q9UBU7 whole entry partner): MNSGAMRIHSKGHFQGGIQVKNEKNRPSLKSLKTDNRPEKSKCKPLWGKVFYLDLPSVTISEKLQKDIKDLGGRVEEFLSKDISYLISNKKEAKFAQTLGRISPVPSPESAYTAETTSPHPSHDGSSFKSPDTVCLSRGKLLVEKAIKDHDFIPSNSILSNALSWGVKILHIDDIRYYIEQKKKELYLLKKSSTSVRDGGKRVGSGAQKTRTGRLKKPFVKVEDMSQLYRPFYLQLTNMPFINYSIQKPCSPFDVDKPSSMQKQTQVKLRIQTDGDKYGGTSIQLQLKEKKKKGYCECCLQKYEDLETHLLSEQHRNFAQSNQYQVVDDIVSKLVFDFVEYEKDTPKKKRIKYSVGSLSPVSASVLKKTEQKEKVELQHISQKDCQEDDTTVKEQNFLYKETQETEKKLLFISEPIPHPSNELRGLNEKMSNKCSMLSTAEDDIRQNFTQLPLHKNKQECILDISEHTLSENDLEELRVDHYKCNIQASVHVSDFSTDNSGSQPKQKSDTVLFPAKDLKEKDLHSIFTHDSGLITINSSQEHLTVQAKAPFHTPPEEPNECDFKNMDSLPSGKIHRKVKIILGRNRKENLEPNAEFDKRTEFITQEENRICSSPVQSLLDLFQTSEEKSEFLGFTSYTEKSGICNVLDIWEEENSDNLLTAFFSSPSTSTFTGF
row,SMILES,IC50
1,O=c1[nH]c(-c2ccncc2)nc(N2CCCN3CCC[C@@H]3C2)c1Cl [Compound 120],245 nM
2,COC(=O)[C@@H]1CN(c2nc(-c3ccncc3)[nH]c(=O)c2Cl)CCN1C(=O)OC(C)(C)C [Compound 162],155 nM
3,O=c1[nH]c(-c2ccncc2)nc(C2(F)CCCNC2)c1Cl (stereo not shown) [Compound 19],3.39 nM
4,O=c1[nH]c(-c2ccncc2)nc(N2CCC(Cc3ccccc3)CC2)c1Cl [Compound 102],52.5 nM

# Other lines, results leading:
row,IC50,SMILES
1,245 nM,CCCC(NC(=O)OC(C)(C)C)C(=O)N1CCC(c2nc(-c3ccncc3)[nH]c(=O)c2Cl)CC1 (stereo not shown) [Compound 74]
2,12.6 nM,C[C@H]1CN(c2nc(-c3ccncc3)[nH]c(=O)c2Cl)[C@@H](C)CN1 [Compound 172]
3,5.62 nM,"O=C(N1CCC(c2nc(-c3ccncc3)[nH]c(=O)c2Cl)CC1)C(F)(F)F [Compound 38, 5-chloro-2-(4-pyridyl)-4-[1-(2,2,2-trifluoroacetyl)-4-piperidyl]-1H-pyrimidin-6-one]"
4,12.9 nM,O=C1CN(c2nc(-c3ccncc3)[nH]c(=O)c2Cl)CCN1 [Compound 33]
5,1.41 nM,N#Cc1ccc(C(=O)N2CCC(c3nc(-c4ccncc4)[nH]c(=O)c3Cl)CC2)cc1 [Compound 46]
6,5.89 nM,CN(c1ccc(C(=O)N2CCC(c3nc(-c4ccncc4)[nH]c(=O)c3Cl)CC2)cc1)S(C)(=O)=O [Compound 65]
7,5.13 nM,CC(=O)N1CCN(c2nc(-c3ccncc3)[nH]c(=O)c2Cl)CC1 [Compound 42]
8,6.92 nM,Cc1cccc(C(=O)N2CCC(c3nc(-c4ccncc4)[nH]c(=O)c3Cl)CC2)c1 [Compound 72]
9,85.1 nM,CC(C)(C)OC(=O)NCC1CN(c2nc(-c3ccncc3)[nH]c(=O)c2Cl)CCO1 (stereo not shown) [Compound 98]
10,138 nM,CC(C)N1CCN(c2nc(-c3ccncc3)[nH]c(=O)c2Cl)CC1 [Compound 86]
11,1.62 nM,Cc1cc(C(=O)N2CCC(c3nc(-c4ccncc4)[nH]c(=O)c3Cl)CC2)n(C)n1 [Compound 56]
12,1.45 nM,O=c1[nH]c(-c2ccncc2)nc(C2CCOCC2)c1Cl [Compound 6]
13,10.2 nM,CN1CCC(c2nc(-c3ccncc3)[nH]c(=O)c2Cl)CC1 [Compound 79]
14,331 nM,"O=c1[nH]c(-c2ccncc2)nc(C2CCOCC2)c1I [Compound 4, 5-Iodo-2-(4-pyridyl)-4-tetrahydropyran-4-yl-1H-pyrimidin-6-one]"
15,3.09 nM,O=C(c1cccc(O)c1)N1CCC(c2nc(-c3ccncc3)[nH]c(=O)c2Cl)CC1 [Compound 50]
16,6.31 nM,"O=c1[nH]c(-c2ccncc2)nc(C2CCOCC2)c1F [Compound 5, 5-fluoro-2-(4-pyridyl)-4-tetrahydropyran-4-yl-1H-pyrimidin-6-one]"
17,15.8 nM,O=C(c1ccccc1I)N1CCC(c2nc(-c3ccncc3)[nH]c(=O)c2Cl)CC1 [Compound 49]
18,174 nM,CC1CN(c2nc(-c3ccncc3)[nH]c(=O)c2Cl)CC(C)N1 (stereo not shown) [Compound 108]
19,3.55 nM,Cc1cc(C(=O)N2CCC(c3nc(-c4ccncc4)[nH]c(=O)c3Cl)CC2)no1 [Compound 69]
20,25.7 nM,"CC(C)NC(=O)N1CCC(c2nc(-c3ccncc3)[nH]c(=O)c2Cl)CC1 [Compound 36, 4-[5-chloro-6-oxo-2-(4-pyridyl)-1-H-pyrimidin-4-yl]-N-isopropyl-piperidine-1-carboxamide]"
21,562 nM,"CC(C)(C)OC(=O)N1CC=C(c2nc(-c3ccncc3)[nH]c(=O)c2Cl)CC1 [Compound 405, tert-butyl 4-[5-chloro-6-oxo-2-(4-pyridyl)-1H-pyrimidin-4-yl]-3,6-dihydro-2H-pyridine-1-carboxylate]"
22,0.871 nM,Cc1nc(C)c(C(=O)N2CCC(c3nc(-c4ccncc4)[nH]c(=O)c3Cl)CC2)s1 [Compound 54]
23,1.74 nM,"O=c1[nH]c(-c2ccncc2)nc(C2CCNCC2)c1Cl [Compound 2, 5-Chloro-6-piperidin-4-yl-2-pyridin-4-yl-3H-pyrimidin-4-one]"
24,9.12 nM,CC(N)C(=O)N1CCC(c2nc(-c3ccncc3)[nH]c(=O)c2Cl)CC1 (stereo not shown) [Compound 75]
25,56.2 nM,O=c1[nH]c(-c2ccncc2)nc(N2CC[C@@H](F)C2)c1Cl [Compound 133]
26,85.1 nM,C[C@@H]1CN[C@@H](C)CN1c1nc(-c2ccncc2)[nH]c(=O)c1Cl [Compound 173]

# Molecular target: Cdc7/Dbf4 (Homo sapiens, UniProt O00311)
# Assay: Cdc7 Biochemical Assay Method 3: Cdc7/Dbf4 Enzyme TR-FRET Assay measuring pS40MCM2
# Conditions: 1 μM ATP, read-out: Biochemical Method 3 (pIC50) (converted)
# Experimental: This protocol describes a method for assaying a compounds' ability to inhibit Cdc7 activity by measuring pS40MCM2 levels in a Cdc7/Dbf4 Enzyme TR-FRET Assay.
# 2.5 nM Cdc7/Dbf4 was incubated with 100 nM of biotin-labelled peptide 35-TDALTS(pS)PGRDLP in the presence of 1 μM ATP at 25° C. for 120 minutes. The phosphorylation of the peptide was detected using TR-FRET. Anti-Mcm2 (pS40) antibody, Terbium anti-rabbit secondary antibody and Streptavidin-Alexa Fluor488 form the detection system.
# Chain of Cdc7/Dbf4 (O00311 whole entry): as the sequence (O00311 whole entry) above
# Chain of Cdc7/Dbf4 (Q9UBU7 whole entry partner): as the sequence (Q9UBU7 whole entry partner) above
row,SMILES,IC50
1,O=c1[nH]c(-c2ccnc(F)c2)nc(OC2CCNCC2)c1Cl [Compound 329],0.617 nM
2,CN(c1nc(-c2ccnc(F)c2)[nH]c(=O)c1Cl)[C@@H]1CCCNC1 [Compound 268],4.27 nM
3,O=c1[nH]c(-c2ccnc(F)c2)nc(N2CCO[C@H]3CCCC[C@@H]32)c1Cl [Compound 332],6.31 nM
4,O=c1[nH]c(-c2ccnc(F)c2)nc(N2CCC[C@H](Nc3ccccc3)C2)c1Cl [Compound 209],85.1 nM
5,CC[C@H]1COCCN1c1nc(-c2ccnc(F)c2)[nH]c(=O)c1Cl [Compound 336],1.82 nM
6,N#C[C@H]1CNCCN1c1nc(-c2ccnc(F)c2)[nH]c(=O)c1Cl [Compound 344],2.75 nM
7,CN(c1nc(-c2ccnc(F)c2)[nH]c(=O)c1Cl)C1CCOCC1 [Compound 229],8.51 nM
8,O=c1[nH]c(-c2ccnc(F)c2)nc(OC2CCOCC2)c1Cl [Compound 305],2 nM
9,CN(Cc1ccccc1)c1nc(-c2ccnc(F)c2)[nH]c(=O)c1Cl [Compound 289],95.5 nM
10,O=c1[nH]c(-c2ccnc(F)c2)nc(N2CCC3(CCCCN3)C2)c1Cl (stereo not shown) [Compound 213],53.7 nM
11,CCNC(=O)C1CCN(c2nc(-c3ccnc(F)c3)[nH]c(=O)c2Cl)CC1 [Compound 257],6.03 nM
12,CC(C)[C@@H]1CN(c2nc(-c3ccnc(F)c3)[nH]c(=O)c2Cl)CCN1 [Compound 327],6.61 nM
13,CC(=O)N[C@H]1CCN(c2nc(-c3ccnc(F)c3)[nH]c(=O)c2Cl)C1 [Compound 274],5.01 nM
14,Nc1ccc(Oc2nc(-c3ccnc(F)c3)[nH]c(=O)c2Cl)cc1 [Compound 287],19.1 nM
15,O=c1[nH]c(-c2ccnc(F)c2)nc(N2CCC3(CC2)OCCO3)c1Cl [Compound 236],14.5 nM
16,O=c1[nH]c(-c2ccnc(F)c2)nc(N2CCn3cncc3C2)c1Cl [Compound 346],1.05 nM
17,CO[C@H]1CCCN(c2nc(-c3ccnc(F)c3)[nH]c(=O)c2Cl)C1 [Compound 283],5.37 nM
18,O=c1[nH]c(-c2ccnc(F)c2)nc(OC2COC2)c1Cl [Compound 199],389 nM
19,O=c1[nH]c(-c2ccnc(F)c2)nc(N2CCOC(CN3CCCCC3)C2)c1Cl (stereo not shown) [Compound 202],10 nM
20,O=c1[nH]c(-c2ccnc(F)c2)nc(N2C[C@H]3NCCO[C@@H]3C2)c1Cl [Compound 237],7.94 nM
21,NC(=O)[C@@H]1CCN(c2nc(-c3ccnc(F)c3)[nH]c(=O)c2Cl)C1 [Compound 249],9.33 nM
22,O=c1[nH]c(-c2ccnc(F)c2)nc(N2CCN[C@H](C3(O)CC3)C2)c1Cl [Compound 311],2.09 nM
